Reference: paper PMC8874475, “Antioxidant–Anti-Inflammatory Evaluation of a Polyherbal Formula” (Pharmaceuticals, 2022)

Assays:
[1] = test system: egg white-induced rat paw edema; assay: Egg white-induced rat paw edema, plethysmometry; assay type: in vivo, Wistar rats; conditions: for Average Paw Size ± SD / Average Rise in Paw Volume ± SD: n = 3; for % inhibition of paw volume: oral, 1 h before egg white, formula F 250 mg/mL at 1 mL/100 g bw, ASP 100 mg/kg
Method: Of the many methods used in screening for the anti-inflammatory effects of various drugs, the most commonly used is the method of highlighting the inhibitory effect of edema produced in the hind paw of a rat after the injection of an inflammatory product. We used whole, fresh egg white, which, due to its inflammation being maintained for a relatively short period of time, is optimal for observation. The effect was measured by the computerized plethysmometric method, the method unanimously and currently used in testing systemic anti-inflammatory effects.
The increases in the volume of the inflamed extremity at 30, 60, 120 and 180 min were expressed as a percentages compared with the volumes measured […] injection of the irritant (Table 3). The mean values of the measured volumes for each animal and the times of measurement were calculated, as were ± standard deviations, followed by the mean values per batch (Table 4). The differences between the averages of the values obtained in the treated groups and those of the control groups (with or without treatment), were calculated for each measurement moment and the anti-inflammatory indexes were evaluated.
The anti-inflammatory effect of plant extracts was evaluated by rat paw edema assay. Wistar rats, of both sexes, weighing 150–200 g provided by the Cantacuzino Institute Biobase were used for the study. Lots of equal numbers of animals (n = 3) were established for each test sample or reference product. The animals were checked at the reception and kept for a period of 7 days for acclimatization, with observation of the clinical condition, behavior and food consumption. They were weighed at the reception and after the acclimatization period, with the selection for testing of animals with weight variations less than 10% of the initial weight. The animals were housed in appropriate cages, in small groups of the same sex. The temperature of the experimental chamber was 22 ± 2 °C and the relative humidity was 50–60%. The lighting was artificial, alternately 12-h light and 12-h dark. The animals received standardized food and water ad libitum. Twelve hours before the test, they were kept at the post and allowed access to water. The measurement of the inflamed segments volumes and their subsequent evolution was performed with the help of a U40 Basile-Italy computerized plethysmometer 7140 and the CUB dedicated software program for data acquisition and storage. The test samples and the reference substance were administered orally by intragastric gavage 1 h before the injection of the inflammatory substance (whole, fresh egg white).
The animals were injected subcutaneously with a volume of 0.1 mL of the inflammatory agent on the plantar surface of the right hind limb.
The volume of the right hind limb was measured plethysometrically prior to injection with the inflammatory agent, which represented the “0” moment of the measurements. The volume of the extremity was measured repeatedly, at 30, 60, 120 and 180 min.
In order to perform the readings, the inflamed extremity was visually marked at the level of the lateral ankle, then it was introduced into the immersion liquid of the measuring cell of the device to this level, with the performance of three measurements for each animal and for each moment, established according to the working protocol, with data storage facilitated by the plethysmometer software. The samples were administered orally by intragastric gavage, as such, at a volume of 1 mL/100 g of bw. Powder samples, after suspension with Tween 80, were administered at a concentration of 250 mg/mL, at 1 mL/100 g of bw.
The reference product (acetylsalicylic acid/aspirin) (Zentiva, Bucharest, Romania) was administered in the same way, in the form of a suspension in two doses of 100 mg/kg of bw at a volume of 1 mL/100 g of bw.

paw edema = conditions: cited from earlier work
NO = conditions: cited from earlier work

CC(=O)Oc1ccccc1C(=O)O [ASP 100, acetylsalicylic acid]
Average Paw Size ± SD ([1]; 0 min (prior to injection)): 1.744 ± 0.297 mL
anti-inflammatory effect over the observation period ([1]; 30–180 min): anti-inflammatory effect that was induced early
Average Paw Size ± SD ([1]; 30 min): 2.489 ± 0.241 mL
Average Rise in Paw Volume ± SD ([1]; 30 min): 0.745 ± 0.056 mL
Average Paw Size ± SD ([1]; 60 min): 2.318 ± 0.161 mL
Average Rise in Paw Volume ± SD ([1]; 60 min): 0.574 ± 0.136 mL
% inhibition of paw volume ([1]; 60 min): 58.20%
Average Paw Size ± SD ([1]; 120 min): 2.216 ± 0.197 mL
Average Rise in Paw Volume ± SD ([1]; 120 min): 0.472 ± 0.1 mL
% inhibition of paw volume ([1]; 120 min): 64.25%
Average Paw Size ± SD ([1]; 180 min): 2.211 ± 0.263 mL
Average Rise in Paw Volume ± SD ([1]; 180 min): 0.467 ± 0.034 mL
inhibitory action on paw edema (paw edema; third hour, 200 mg/kg, p < 0.05): 31.87%

CC(C)c1cc2c(c(O)c1O)[C@@]1(C(=O)O)CCCC(C)(C)[C@@H]1CC2 [Carnosic acid]
concentration that inhibits NO completely (NO): > 12.5 µg/mL

CC(C)c1cc2c(c(O)c1O)[C@@]13CCCC(C)(C)[C@@H]1C[C@@H]2OC3=O [carnosol]
IC50 (NO; read-out: IC50 NO inhibition): 9.4 µM

O=C(/C=C/c1ccc(O)c(O)c1)O[C@H](Cc1ccc(O)c(O)c1)C(=O)O [rosmarinic acid]
reduction of paw edema (paw edema; dose of 25 mg/kg, after 6 hrs): over 60%
